Data from US8034811B2, “Hydroxamic acid esters and pharmaceutical use thereof” (Leo Pharma A/S, priority 2003, dated 2011).

molecular target: T1, human intracellular domain of KDR (VEGF Receptor-2) (Homo sapiens, UniProt P35968); assay: In vitro KDR kinase assay; format: biochemical; conditions: IC50 as molar concentration; GST-KDR-cyt, substrate phospholipase Cγ, ATP 100 μM, 30 min room temperature, time-resolved fluorometry
T1 construct: A fusion protein containing the intracellular domain (amino acids 793 to 1357) of the KDR and N-terminally tagged to GST; made in house; host or cells: Sf9 insect cells (baculovirus, pDEST20) for GST-KDR-cyt; E. coli BL21 (pGEX-4T-1) for GST-PLCγ
Protocol: The intracellular domain of the KDR receptor was used in the in vitro KDR assay. This domain contains the tyrosine kinase domain of KDR, and when expressed in Sf9 cells, this domain is constitutively active i.e. the kinase domain is phosphorylated on tyrosine residues.
The compounds to be tested were dissolved in DMSO at 10 mM, stored at −20° C. and protected from light. The maximum concentration of DMSO in the in vitro assay was 0.1%. Control samples received the same concentration of solvent as the samples treated with the test compounds.
For the kinase assays, black 96 wells MaxiSorp microtiter plates were coated by an overnight incubation with 100 μl/well of a 2.5 μg/ml solution of phospholipase Cγ in TBS buffer (40 mM Tris-HCl, pH 7.4, 20 mM Mg(C2H3O2)2, 0.02% NaN3) at 4° C. The plates were washed 3 times with TBS buffer containing 0.1% Tween-20, and the residual binding sites were masked by incubation with 1% BSA in TBS buffer containing 0.1% Tween-20 for 1 h. The plates were washed again and the test compounds were added at final concentrations up to 10 μM, together with ATP at the final concentration of 100 μM in 50 μl TBS buffer/well. Then, 50 μl of the human intracellular domain of KDR (VEGF Receptor-2) finally diluted 3000-3500 fold were added and were incubated for 30 min at room temperature. The plates were washed and 100 μl of the Europium labelled PY-20 anti-phosphotyrosine antibody (Wallac, FIN) were incubated in each well at the concentration of approximately 114 ng/ml for 2 h. Then, the plates were washed and 100 μl of enhancer solution (Wallac, FIN) were incubated in each well for 5 min in the dark. The plates were read in a Victor 1420 multilabel counter, using a Europium protocol for time-resolved fluorometry (Wallac, FIN): excitation 340 nm, emission 615 nm, sample pulse cycle 400 μs. Fluorescence was measured for 400 μs between flashes after a delay time of 400 μs. The background measured in the absence of enzyme was subtracted from all samples. The molar concentrations that inhibited 50% of the maximal enzymatic activity (IC50) were calculated from the dose-response curve, by fitting a straight line between the two concentrations immediately above and below the 50% inhibition point (i.e. by solving the equation y=a+bx).

T1 sequence (P35968 794-1356 limits assumed): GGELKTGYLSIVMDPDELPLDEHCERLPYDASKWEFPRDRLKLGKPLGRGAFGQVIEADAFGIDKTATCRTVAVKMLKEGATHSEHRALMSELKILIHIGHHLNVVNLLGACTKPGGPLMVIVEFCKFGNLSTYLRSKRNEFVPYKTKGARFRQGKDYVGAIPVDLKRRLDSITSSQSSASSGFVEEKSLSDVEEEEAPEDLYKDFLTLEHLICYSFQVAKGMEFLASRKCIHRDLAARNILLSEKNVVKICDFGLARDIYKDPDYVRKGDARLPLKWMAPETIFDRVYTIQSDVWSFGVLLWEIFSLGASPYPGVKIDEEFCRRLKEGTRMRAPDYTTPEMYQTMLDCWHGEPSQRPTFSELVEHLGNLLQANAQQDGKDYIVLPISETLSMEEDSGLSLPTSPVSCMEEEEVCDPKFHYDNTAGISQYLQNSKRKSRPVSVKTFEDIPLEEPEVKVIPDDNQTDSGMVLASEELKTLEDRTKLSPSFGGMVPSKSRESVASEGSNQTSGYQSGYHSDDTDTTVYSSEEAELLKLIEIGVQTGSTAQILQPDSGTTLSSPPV

Compound	IC50 [µM]
O=C(NOCC1CCC1)c1ccccc1NCc1ccncc1 [Compound 119, N-Cyclobutylmethoxy-2-[(pyridin-4-ylmethyl)-amino]-benzamide]	0.0158
O=C(NOCc1ccc(F)cc1)c1ccccc1NCc1ccnc(N2CCOCC2)c1 [Compound 207, N-(4-Fluoro-benzyloxy)-2-[(2-morpholin-4-yl-pyridin-4-ylmethyl)-amino]-benzamide]	0.0794
N#Cc1ccc(CONC(=O)c2cccnc2NCc2ccncc2)cc1 [Compound 156, N-(4-Cyano-benzyloxy)-2-[(pyridin-4-ylmethyl)-amino]-nicotinamide]	0.0631
CCC(CC)CONC(=O)c1ccccc1NCc1ccncc1 [Compound 117, N-(2-Ethyl-butoxy)-2-[(pyridin-4-ylmethyl)-amino]-benzamide]	0.0126
N#Cc1ccccc1CONC(=O)c1ccccc1NCc1ccncc1 [Compound 75, N-(2-Cyano-benzyloxy)-2-[(pyridin-4-ylmethyl)-amino]-benzamide]	0.0631
COc1cc(CONC(=O)c2ccccc2NCc2ccncc2)cc(OC)c1OC [Compound 9, 2-[(pyridin-4-ylmethyl)-amino]-N-(3,4,5-trimethoxy-benzyloxy)-benzamide]	0.1
N#Cc1ccc(CONC(=O)c2ccccc2NCc2ccncc2)c(I)c1 [Compound 80, N-(4-Cyano-2-iodo-benzyloxy)-2-[(pyridin-4-ylmethyl)-amino]-benzamide]	0.0398
COc1c(F)c(F)c(CONC(=O)c2ccccc2NCc2ccncc2)c(F)c1F [Compound 43, 2-[(Pyridin-4-ylmethyl)-amino]-N-(2,3,5,6-tetrafluoro-4-methoxy-benzyloxy)benzamide]	0.02
Cc1nc(CONC(=O)c2ccccc2NCc2ccncc2)cs1 [Compound 32, N-(2-methyl-thiazol-4 ylmethoxy)-2-[(pyridin-4-ylmethyl)-amino]-benzamide]	0.02
O=C(NOCCC1CCCC1)c1ccccc1NCc1ccncc1 [Compound 126, N-(2-Cyclopentyl-ethoxy)-2-[(pyridin-4-ylmethyl)-amino]-benzamide]	0.00794
O=C(NOCc1ccc(Br)cc1)c1ccccc1NCc1ccncc1 [Compound 44, N-(4-Bromo-benzyloxy)-2-[(pyridin-4-ylmethyl)-amino]-benzamide]	0.0501
COc1ccc(CONC(=O)c2ccccc2NCc2ccncc2)cc1C(F)(F)F [Compound 63, N-(4-Methoxy-3-trifluoromethyl-benzyloxy)-2-[(pyridin-4-ylmethyl)-amino]-benzamide]	0.0631
N#Cc1ccc(CONC(=O)c2ccccc2NCc2ccncc2)c(Cl)c1 [Compound 78, N-(2-Chloro-4-cyano-benzyloxy)-2-[(pyridin-4-ylmethyl)-amino]-benzamide]	0.0158
CC(=O)OCC(=O)Nc1cc(CNc2ccccc2C(=O)NOCc2ccc(C#N)cc2)ccn1 [compound 222]	0.00631
O=C(NOCc1ccc2ccccc2n1)c1ccccc1NCc1ccncc1 [Compound 28, 2-[(Pyridin-4-ylmethyl)-amino]-N-(quinolin-2-ylmethoxy)-benzamide]	0.1
N#Cc1ccc(CONC(=O)c2cccnc2NCc2ccncc2)c(Cl)c1 [Compound 157, N-(2-Chloro-4-cyano-benzyloxy)-2-[(pyridin-4-ylmethyl)-amino]-nicotinamide]	0.0501
N#Cc1ccc(CONC(=O)c2ccccc2NCc2ccnc(NC(=O)NCC(=O)O)c2)cc1 [compound 216]	0.01
O=C(NCCO)Nc1cc(CNc2ccccc2C(=O)NOCC2CCCC2)ccn1 [compound 221]	0.00794
O=C(NOCc1cc(Cl)ccc1Cl)c1ccccc1NCc1ccncc1 [Compound 19, N-(2,5-Dichloro-benzyloxy)-2-[(pyridin-4-ylmethyl)-amino]-benzamide]	0.0631
N#Cc1cccc(CONC(=O)c2ccccc2NCc2ccncc2)c1 [Compound 74, N-(3-Cyano-benzyloxy)-2-[(pyridin-4-ylmethyl)-amino]-benzamide]	0.0631
N#Cc1ccc(CONC(=O)c2ccccc2NCc2ccncc2)c(F)c1 [Compound 76, N-(4-Cyano-2-fluoro-benzyloxy)-2-[(pyridin-4-ylmethyl)-amino]-benzamide]	0.0251
O=C(NOCC1CCCCO1)c1ccccc1NCc1ccncc1 (stereo not shown) [Compound 142, 2-[(Pyridin-4-ylmethyl)-amino]-N-(tetrahydro-pyran-2-ylmethoxy)-benzamide]	0.0398

Compound	IC50 [µM]
O=C(NOCc1ccccc1Cl)c1ccccc1NCc1ccncc1 [Compound 12, N-(2-Chloro-benzyloxy)-2-[(pyridin-4-ylmethyl)-amino]-benzamide]	0.0158
COCC(=O)Nc1cc(CNc2ccccc2C(=O)NOCC2CCCC2)ccn1 [compound 246]	0.02
Cc1nc(CONC(=O)c2ccccc2NCc2ccnc3ccccc23)cs1 [compound 232]	0.02
CCOC(=O)Nc1cc(CNc2ccccc2C(=O)NOCc2ccc(C#N)cc2)ccn1 [compound 225]	0.00794
COc1ccc(CNc2ccccc2C(=O)NOCc2ccc(C#N)cc2)cn1 [compound 237]	0.0794
Nc1cc(CNc2ccccc2C(=O)NOCC2CCCC2)ccn1 [compound 229]	0.00794
O=C(NOc1ccccc1)c1ccccc1NCc1ccncc1 [Compound 29, N-Phenoxy-2-[(pyridin-4-ylmethyl)-amino]-benzamide]	0.126
N#Cc1ccc(Br)c(CONC(=O)c2ccccc2NCc2ccncc2)c1 [Compound 81, N-(2-Bromo-5-cyano-benzyloxy)-2-[(pyridin-4-ylmethyl)-amino]-benzamide]	0.0501
O=C(NOCc1ccccc1C(F)(F)F)c1ccccc1NCc1ccncc1 [Compound 5, 2-[(Pyridin-4-ylmethyl)-amino]-N-(2-trifluoromethyl-benzyloxy)-benzamide]	0.0316
O=C(NOCc1ccc(F)cc1)c1ccccc1NCc1ccncc1 [Compound 22, N-(4-Fluoro-benzyloxy)-2-[(pyridin-4-ylmethyl)-amino]-benzamide]	0.0251
Cc1nc(CONC(=O)c2ccc(F)cc2NCc2ccncc2)cs1 [Compound 143, 4-Fluoro-N-(2-methyl-thiazol-4-ylmethoxy)-2-[(pyridin-4-ylmethyl)amino]-benzamide]	0.1
O=C(NOCc1ccc(F)cc1C(F)(F)F)c1ccccc1NCc1ccncc1 [Compound 59, N-(4-Fluoro-2-trifluoromethyl-benzyloxy)-2-[(pyridin-4-ylmethyl)-amino]-benzamide]	0.0316
O=C(NOCC1CC=CCC1)c1ccccc1NCc1ccncc1 (stereo not shown) [Compound 128, N-(Cyclohex-3-enylmethoxy)-2-[(pyridin-4-ylmethyl)-amino]-benzamide]	0.0158
Cc1cc(F)cc(C)c1CONC(=O)c1ccccc1NCc1ccncc1 [Compound 38, N-(4-Fluoro-2,6-dimethyl-benzyloxy)-2-[(pyridin-4-ylmethyl)-amino]-benzamide]	0.01
O=C(NOCc1ccc(F)cc1)c1ccccc1NCc1ccc2c(c1)CCO2 [Compound 195, 2-[(2,3-Dihydro-benzofuran-5-ylmethyl)-amino]-N-(4-fluoro-benzyloxy)-benzamide]	0.0794
Cc1ccc(CONC(=O)c2ccccc2NCc2ccncc2)c(F)c1F [Compound 40, N-(2,3-Difluoro-4-methyl-benzyloxy)-2-[(pyridin-4-ylmethyl)-amino]-benzamide]	0.01
CNC(=O)Nc1cc(CNc2ccccc2C(=O)NOCC2CCCC2)ccn1 [Compound 212, N-Cyclopentylmethoxy-2-{[2-(3-methyl-ureido)-pyridin-4-ylmethyl]-amino}-benzamide]	0.01
N#CCc1ccccc1CONC(=O)c1ccccc1NCc1ccncc1 [Compound 56, N-(2-Cyanomethyl-benzyloxy)-2-[(pyridin-4-ylmethyl)-amino]-benzamide]	0.0501
CC1CC=CCC1CONC(=O)c1ccccc1NCc1ccncc1 (stereo not shown) [Compound 129, N-(6-Methyl-cyclohex-3-enylmethoxy)-2-[(pyridin-4-ylmethyl)-amino]-benzamide]	0.01
O=C(NOCc1ccc2c(c1)OCO2)c1ccccc1NCc1ccncc1 [Compound 72, N-(Benzo[1,3]-dioxol-5-ylmethoxy)-2-[(pyridin-4-ylmethyl)-amino]-benzamide]	0.0398
O=C(NOCCCC1CCCC1)c1ccccc1NCc1ccncc1 [Compound 127, N-(3-Cyclopentyl-propoxy)-2-[(pyridin-4-ylmethyl)-amino]-benzamide]	0.0158
